In ChEMBL document CHEMBL1629662, “Antimicrobial activity of prulifloxacin tested against a worldwide collection of gastroenteritis-producing pathogens, including those causing traveler's diarrhea” (2009):
Values after ≈ are worked out from the molar mass of the structure shown.

Tests used:
Shigella boydii [1] = assay: Antibacterial activity against Shigella boydii assessed as percent susceptible isolates by broth microdilution method; type: functional; conditions: pooled result: one value given for 3 cell lines, strains, targets or settings
Vibrio sp. [2] = assay: Antibacterial activity against Vibrio sp. assessed as percent susceptible isolates by broth microdilution method; type: functional
[3] = Antibacterial activity against Salmonella enterica serovar Newport by broth microdilution method; type: functional, Salmonella enterica subsp. enterica serovar Newport
Vibrio fluvialis [4] = assay: Antibacterial activity against Vibrio fluvialis assessed as percent resistant isolates by broth microdilution method; type: functional
Shigella dysenteriae = assay: Antibacterial activity against Shigella dysenteriae by broth microdilution method; type: functional
Escherichia coli [5] = assay: Antibacterial activity against Escherichia coli assessed as percent susceptible isolates by broth microdilution method; type: functional
Aeromonas caviae [6] = assay: Antibacterial activity against Aeromonas caviae assessed as percent resistant isolates by broth microdilution method; type: functional
[7] = test system: Yersinia pseudotuberculosis; assay: Antibacterial activity against Yersinia pseudotuberculosis by broth microdilution method; type: functional
Vibrio parahaemolyticus [8] = assay: Antibacterial activity against Vibrio parahaemolyticus assessed as percent resistant isolates by broth microdilution method; type: functional
Vibrio fluvialis [9] = assay: Antibacterial activity against Vibrio fluvialis assessed as percent susceptible isolates by broth microdilution method; type: functional
Vibrio cholerae [10] = assay: Antibacterial activity against Vibrio cholerae by broth microdilution method; type: functional
Vibrio parahaemolyticus [11] = assay: Antibacterial activity against Vibrio parahaemolyticus by broth microdilution method; type: functional
Vibrio alginolyticus [12] = assay: Antibacterial activity against Vibrio alginolyticus assessed as percent susceptible isolates by broth microdilution method; type: functional
Aeromonas sobria [13] = assay: Antibacterial activity against Aeromonas sobria assessed as percent resistant isolates by broth microdilution method; type: functional
Campylobacter coli = assay: Antibacterial activity against Campylobacter coli by broth microdilution method; type: functional
Shigella flexneri = assay: Antibacterial activity against Shigella flexneri by broth microdilution method; type: functional
Salmonella typhi = assay: Antibacterial activity against Salmonella enterica serovar Typhi by broth microdilution method; type: functional, Salmonella enterica subsp. enterica serovar Typhi
Shigella sonnei [14] = assay: Antibacterial activity against Shigella sonnei assessed as percent resistant isolates by broth microdilution method; type: functional; conditions: pooled result: one value given for 4 cell lines, strains, targets or settings
[15] = test system: Yersinia pseudotuberculosis; assay: Antibacterial activity against Yersinia pseudotuberculosis assessed as percent susceptible isolates by broth microdilution method; type: functional
Aeromonas veronii [16] = assay: Antibacterial activity against Aeromonas veronii assessed as percent susceptible isolates by broth microdilution method; type: functional
Aeromonas caviae [17] = assay: Antibacterial activity against Aeromonas caviae assessed as percent susceptible isolates by broth microdilution method; type: functional
Yersinia enterocolitica [18] = assay: Antibacterial activity against Yersinia enterocolitica assessed as percent resistant isolates by broth microdilution method; type: functional
Vibrio fluvialis [19] = assay: Antibacterial activity against Vibrio fluvialis by broth microdilution method; type: functional
Aeromonas hydrophila [20] = assay: Antibacterial activity against Aeromonas hydrophila assessed as percent susceptible isolates by broth microdilution method; type: functional
Shigella boydii [21] = assay: Antibacterial activity against Shigella boydii by broth microdilution method; type: functional
Campylobacter jejuni = assay: Antibacterial activity against Campylobacter jejuni by broth microdilution method; type: functional
Salmonella paratyphi = assay: Antibacterial activity against Salmonella enterica serovar Paratyphi by broth microdilution method; type: functional, Salmonella enterica subsp. enterica serovar Paratyphi A
Plesiomonas shigelloides [22] = assay: Antibacterial activity against Plesiomonas shigelloides assessed as percent susceptible isolates by broth microdilution method; type: functional
Vibrio sp. [23] = assay: Antibacterial activity against Vibrio sp. assessed as percent resistant isolates by broth microdilution method; type: functional
Plesiomonas shigelloides [24] = assay: Antibacterial activity against Plesiomonas shigelloides assessed as percent resistant isolates by broth microdilution method; type: functional
Salmonella enteritidis [25] = assay: Antibacterial activity against Salmonella enterica serovar Enteritidis assessed as percent susceptible isolates by broth microdilution method; type: functional, Salmonella enterica subsp. enterica serovar Enteritidis; conditions: pooled result: one value given for 5 cell lines, strains, targets or settings
Aeromonas hydrophila [26] = assay: Antibacterial activity against Aeromonas hydrophila by broth microdilution method; type: functional
Vibrio cholerae [27] = assay: Antibacterial activity against Vibrio cholerae assessed as percent susceptible isolates by broth microdilution method; type: functional
Vibrio alginolyticus [28] = assay: Antibacterial activity against Vibrio alginolyticus by broth microdilution method; type: functional
Vibrio parahaemolyticus [29] = assay: Antibacterial activity against Vibrio parahaemolyticus assessed as percent susceptible isolates by broth microdilution method; type: functional
Yersinia enterocolitica [30] = assay: Antibacterial activity against Yersinia enterocolitica by broth microdilution method; type: functional
Aeromonas veronii [31] = assay: Antibacterial activity against Aeromonas veronii assessed as percent resistant isolates by broth microdilution method; type: functional
Aeromonas sobria [32] = assay: Antibacterial activity against Aeromonas sobria assessed as percent susceptible isolates by broth microdilution method; type: functional
Vibrio vulnificus [33] = assay: Antibacterial activity against Vibrio vulnificus by broth microdilution method; type: functional
Escherichia coli [34] = assay: Antibacterial activity against Escherichia coli assessed as percent resistant isolates by broth microdilution method; type: functional
Aeromonas veronii [35] = assay: Antibacterial activity against Aeromonas veronii by broth microdilution method; type: functional
[36] = Antibacterial activity against Salmonella enterica serovar Heidelberg by broth microdilution method; type: functional, Salmonella enterica subsp. enterica serovar Heidelberg
Vibrio cholerae [37] = assay: Antibacterial activity against Vibrio cholerae assessed as percent resistant isolates by broth microdilution method; type: functional
Plesiomonas shigelloides [38] = assay: Antibacterial activity against Plesiomonas shigelloides by broth microdilution method; type: functional
Aeromonas hydrophila [39] = assay: Antibacterial activity against Aeromonas hydrophila assessed as percent resistant isolates by broth microdilution method; type: functional
Aeromonas caviae [40] = assay: Antibacterial activity against Aeromonas caviae by broth microdilution method; type: functional
Vibrio vulnificus [41] = assay: Antibacterial activity against Vibrio vulnificus assessed as percent susceptible isolates by broth microdilution method; type: functional
Vibrio alginolyticus [42] = assay: Antibacterial activity against Vibrio alginolyticus assessed as percent resistant isolates by broth microdilution method; type: functional
Aeromonas sobria [43] = assay: Antibacterial activity against Aeromonas sobria by broth microdilution method; type: functional
Yersinia enterocolitica [44] = assay: Antibacterial activity against Yersinia enterocolitica assessed as percent susceptible isolates by broth microdilution method; type: functional
[45] = Antibacterial activity against Salmonella enterica serovar Virchow by broth microdilution method; type: functional, Salmonella enterica subsp. enterica serovar Virchow
Vibrio sp. [46] = assay: Antibacterial activity against Vibrio sp. by broth microdilution method; type: functional
Salmonella typhimurium [47] = assay: Antibacterial activity against Salmonella enterica serovar Typhimurium by broth microdilution method; type: functional, Salmonella enterica subsp. enterica serovar Typhimurium
Shigella sonnei [48] = assay: Antibacterial activity against Shigella sonnei by broth microdilution method; type: functional
Escherichia coli [49] = assay: Antibacterial activity against Escherichia coli by broth microdilution method; type: functional
Vibrio vulnificus [50] = assay: Antibacterial activity against Vibrio vulnificus assessed as percent resistant isolates by broth microdilution method; type: functional
Salmonella enteritidis [51] = assay: Antibacterial activity against Salmonella enterica serovar Enteritidis by broth microdilution method; type: functional, Salmonella enterica subsp. enterica serovar Enteritidis
Salmonella typhimurium [52] = assay: Antibacterial activity against Salmonella enterica serovar Typhimurium assessed as percent resistant isolates by broth microdilution method; type: functional, Salmonella enterica subsp. enterica serovar Typhimurium; conditions: pooled result: one value given for 8 cell lines, strains, targets or settings

## CC1(C)S[C@@H]2[C@H](NC(=O)[C@H](N)c3ccccc3)C(=O)N2[C@H]1C(=O)O [AMPICILLIN]
Shigella boydii [1]
  Activity: 40.6%
Vibrio sp. [2]
  Activity: 90%
[3]
  MIC90: > 256 µg/mL
Vibrio fluvialis [4]
  Activity: 0%
Shigella dysenteriae
  MIC50: 128 µg/mL (≈ 366 µM)
  MIC90: > 256 µg/mL
Escherichia coli [5]
  Activity: 63%
Aeromonas caviae [6]
  Activity: 98%
[7]
  MIC50: 32 µg/mL (≈ 91.6 µM)
  MIC90: 32 µg/mL (≈ 91.6 µM)
Vibrio parahaemolyticus [8]
  Activity: 0%
Vibrio fluvialis [9]
  Activity: 90%
Vibrio cholerae [10]
  MIC50: 2 µg/mL (≈ 5.72 µM)
  MIC90: 8 µg/mL (≈ 22.9 µM)
Vibrio parahaemolyticus [11]
  MIC50: 2 µg/mL (≈ 5.72 µM)
  MIC90: 8 µg/mL (≈ 22.9 µM)
Vibrio alginolyticus [12]
  Activity: 90%
Aeromonas sobria [13]
  Activity: 98%
Campylobacter coli
  MIC50: 2 µg/mL (≈ 5.72 µM)
  MIC90: 32 µg/mL (≈ 91.6 µM)
Shigella flexneri
  MIC50: 128 µg/mL (≈ 366 µM)
  MIC90: > 256 µg/mL
Salmonella typhi
  MIC90: > 256 µg/mL
Shigella sonnei [14]
  Activity: 59.4%
[15]
  Activity: 6.5%
Aeromonas veronii [16]
  Activity: 1%
Aeromonas caviae [17]
  Activity: 1%
Yersinia enterocolitica [18]
  Activity: 91.3%
Vibrio fluvialis [19]
  MIC50: 2 µg/mL (≈ 5.72 µM)
  MIC90: 8 µg/mL (≈ 22.9 µM)
Aeromonas hydrophila [20]
  Activity: 1%
Shigella boydii [21]
  MIC50: 128 µg/mL (≈ 366 µM)
  MIC90: > 256 µg/mL
Campylobacter jejuni
  MIC50: 2 µg/mL (≈ 5.72 µM)
  MIC90: 32 µg/mL (≈ 91.6 µM)
Salmonella paratyphi
  MIC90: > 256 µg/mL
Plesiomonas shigelloides [22]
  Activity: 0%
Vibrio sp. [23]
  Activity: 0%
Plesiomonas shigelloides [24]
  Activity: 100%
Salmonella enteritidis [25]
  Activity: 77.2%
Aeromonas hydrophila [26]
  MIC50: > 256 µg/mL
  MIC90: > 256 µg/mL
Vibrio cholerae [27]
  Activity: 90%
Vibrio alginolyticus [28]
  MIC50: 2 µg/mL (≈ 5.72 µM)
  MIC90: 8 µg/mL (≈ 22.9 µM)
Vibrio parahaemolyticus [29]
  Activity: 90%
Yersinia enterocolitica [30]
  MIC50: 32 µg/mL (≈ 91.6 µM)
  MIC90: 32 µg/mL (≈ 91.6 µM)
Aeromonas veronii [31]
  Activity: 98%
Aeromonas sobria [32]
  Activity: 1%
Vibrio vulnificus [33]
  MIC50: 2 µg/mL (≈ 5.72 µM)
  MIC90: 8 µg/mL (≈ 22.9 µM)
Escherichia coli [34]
  Activity: 37%
Aeromonas veronii [35]
  MIC50: > 256 µg/mL
  MIC90: > 256 µg/mL
[36]
  MIC90: > 256 µg/mL
Vibrio cholerae [37]
  Activity: 0%
Plesiomonas shigelloides [38]
  MIC: 64 µg/mL (≈ 183 µM)
  MIC50: 64 µg/mL (≈ 183 µM)
Aeromonas hydrophila [39]
  Activity: 98%
Aeromonas caviae [40]
  MIC50: > 256 µg/mL
  MIC90: > 256 µg/mL
Vibrio vulnificus [41]
  Activity: 90%
Vibrio alginolyticus [42]
  Activity: 0%
Aeromonas sobria [43]
  MIC50: > 256 µg/mL
  MIC90: > 256 µg/mL
Yersinia enterocolitica [44]
  Activity: 6.5%
[45]
  MIC90: > 256 µg/mL
Vibrio sp. [46]
  MIC50: 2 µg/mL (≈ 5.72 µM)
  MIC90: 8 µg/mL (≈ 22.9 µM)
Salmonella typhimurium [47]
  MIC50: 1 µg/mL (≈ 2.86 µM)
  MIC90: > 256 µg/mL
Shigella sonnei [48]
  MIC50: 128 µg/mL (≈ 366 µM)
  MIC90: > 256 µg/mL
Escherichia coli [49]
  MIC50: 2 µg/mL (≈ 5.72 µM)
  MIC90: > 256 µg/mL
Vibrio vulnificus [50]
  Activity: 0%
Salmonella enteritidis [51]
  MIC50: 1 µg/mL (≈ 2.86 µM)
  MIC90: > 256 µg/mL
Salmonella typhimurium [52]
  Activity: 22.8%
